Like-named read-outs stand apart in the source and are kept apart here.
Experiments:
[1] = molecular target: xanthine oxidase (XO) (Homo sapiens, UniProt P47989); assay: XO dependent nitrite reduction to NO / XO activity; assay type: biochemical
From the text: Referring to FIGS. 1-8, a further embodiment of the disclosed invention, including a method of treatment of various conditions by increasing XO associated nitrite conversion to nitric oxide is described. This embodiment of the disclosed invention describes chemical reactions that may be useful for stimulating xanthine oxidase (XO) to increase nitrite conversion to nitric oxide, namely diallyl trisulfide (DATS) stimulation of XO reduction of nitrite to nitric oxide. This would be useful for various purposes including unique ways to stimulate nitrite reduction to nitric oxide within an organism.
DATS may therefore be administered alone, or for example, with nitrite and/or XO, as a therapeutic for known NO mediated conditions, including inflammation, wound healing, and infections. DATS can be administered in a variety of methods, including nanoformulation compounds, especially for creams or lotions.

[2] = nitrite reduction to NO facilitated by ascorbic acid, DADS, or DATS; settings: FIGS. 4, 6; over one hour
From the text: FIG. 4 is a line graph of experiments showing nitrite reduction to NO facilitated by ascorbic acid, DADS, or DATS;
FIG. 5 is a pair of line graphs of two experiments showing nitrite reduction to NO facilitated by ascorbic acid over one hour;
FIG. 6 is a pair of line graphs of two experiments showing nitrite reduction to NO facilitated by DADS over one hour;
FIG. 7 is a pair of line graphs of two experiments showing nitrite reduction to NO facilitated by DATS over one hour;
Turning to FIGS. 1-7, an embodiment of the disclosed invention, including a method of treatment of various conditions by increasing nitrite conversion to nitric oxide via DADS is described. This embodiment of the disclosed invention describes chemical reactions that may be useful for stimulating nitrite conversion to nitric oxide, namely diallyl disulfide (DADS) reduction of nitrite to nitric oxide. […] This would be useful for various purposes including unique ways to stimulate nitrite reduction to nitric oxide within an organism.
While it has been shown that increasing NO levels can be therapeutic for a number of conditions, the biochemical mechanism of nitrite reduction to NO, and thereby increasing NO levels, is poorly understood. Some agents can facilitate such reduction, such as ascorbic acid, but do so weakly. […]

[3] = ascorbic acid as comparison agent; general statement; cited from earlier work

xanthine oxidase (XO), sequence (P47989 whole entry, species assumed): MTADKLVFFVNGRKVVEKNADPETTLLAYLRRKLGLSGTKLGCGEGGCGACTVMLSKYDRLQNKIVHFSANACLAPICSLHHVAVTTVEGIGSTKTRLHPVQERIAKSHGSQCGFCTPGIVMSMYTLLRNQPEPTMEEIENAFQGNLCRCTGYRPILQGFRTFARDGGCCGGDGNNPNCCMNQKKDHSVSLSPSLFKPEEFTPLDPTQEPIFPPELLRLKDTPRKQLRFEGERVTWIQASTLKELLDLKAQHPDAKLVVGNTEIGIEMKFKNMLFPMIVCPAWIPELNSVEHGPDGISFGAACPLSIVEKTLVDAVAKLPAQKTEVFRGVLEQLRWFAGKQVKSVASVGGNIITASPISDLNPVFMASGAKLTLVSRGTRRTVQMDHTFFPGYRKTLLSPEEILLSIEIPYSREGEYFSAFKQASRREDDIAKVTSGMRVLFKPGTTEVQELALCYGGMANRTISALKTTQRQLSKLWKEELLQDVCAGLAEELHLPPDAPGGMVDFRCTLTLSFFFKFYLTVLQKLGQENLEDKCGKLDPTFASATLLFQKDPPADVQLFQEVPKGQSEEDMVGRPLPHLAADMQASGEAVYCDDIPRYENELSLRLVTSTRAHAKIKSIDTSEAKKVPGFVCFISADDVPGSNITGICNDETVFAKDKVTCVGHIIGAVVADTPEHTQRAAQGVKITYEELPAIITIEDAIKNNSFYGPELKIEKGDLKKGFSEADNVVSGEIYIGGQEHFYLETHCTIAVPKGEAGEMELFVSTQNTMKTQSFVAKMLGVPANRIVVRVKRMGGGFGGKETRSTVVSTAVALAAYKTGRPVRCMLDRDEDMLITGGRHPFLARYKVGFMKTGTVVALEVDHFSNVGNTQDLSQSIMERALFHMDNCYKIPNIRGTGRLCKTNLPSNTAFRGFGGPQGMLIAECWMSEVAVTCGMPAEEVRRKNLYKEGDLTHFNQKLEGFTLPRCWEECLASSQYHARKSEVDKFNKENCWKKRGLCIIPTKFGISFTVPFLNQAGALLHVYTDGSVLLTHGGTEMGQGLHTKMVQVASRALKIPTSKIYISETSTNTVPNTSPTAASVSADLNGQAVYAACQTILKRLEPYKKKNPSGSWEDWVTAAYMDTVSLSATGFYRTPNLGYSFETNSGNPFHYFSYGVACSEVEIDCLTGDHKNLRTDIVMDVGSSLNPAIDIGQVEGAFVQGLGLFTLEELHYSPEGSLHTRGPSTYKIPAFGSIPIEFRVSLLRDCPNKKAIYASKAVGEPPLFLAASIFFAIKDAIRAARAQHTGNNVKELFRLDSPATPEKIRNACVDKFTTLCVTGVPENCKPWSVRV

## C=CCSSSCC=C [DATS, diallyl trisulfide]
[1]
  XO dependent nitrite reduction to NO: selectively increases XO dependent nitrite reduction to NO
[1]; FIG. 8
  XO activity & NO production: differentially affects XO activity & NO production

## C=CCSSCC=C [DADS, diallyl disulfide]
[2]
  nitrite reduction to NO: selectively stimulate nitrite reduction to NO

## O=C1O[C@H]([C@@H](O)CO)C(O)=C1O [ascorbic acid]
[3]
  nitrite reduction to NO: weakly
